In this assay the target is mTOR/GbL/Raptor (mTORC1) (Homo sapiens, UniProt P42345). In words: mTOR/GbL/Raptor (mTORC1) ELISA assay. It counts as biochemical. Particulars: phosphorylation of 4E-BP1; 0.2 nM mTORC1, 10 μM ATP; read-out: IC50 in this assay (mTORC1 ELISA). On the procedure:
The measurement of mTORC1 enzyme activity was performed in an ELISA assay format following the phosphorylation of 4E-BP1 protein. All experiments were performed in the 384-well format. Generally, 0.5 μL DMSO containing varying concentrations of the test Compound was mixed with 15 μL enzyme solution. Kinase reactions were initiated with the addition of 15 μL of substrates-containing solution. The assay conditions were as follows; 0.2 nM mTORC1, 10 μM ATP and 50 nM NHis-tagged 4E-BP1 in 20 mM Hepes, pH 7.2, 1 mM DTT, 50 mM NaCl, 10 mM MnCl2, 0.02 mg/mL BSA, 0.01% CHAPS, 50 mM β-glycerophosphate. Following an incubation of 120 minutes at ambient temperature, 20 μL of the reaction volume was transferred to a Ni-Chelate-coated 384-well plate. The binding step of the 4E-BP1 protein proceeded for 60 minutes, followed by washing 4 times each with 50 μL of Tris-buffered saline solution (TBS). Anti-phospho-4E-BP1 rabbit-IgG (20 μL, 1:5000) in 5% BSA-TBST (0.2% Tween-20 in TBS) was added and further incubated for 60 minutes. Incubation with a secondary HRP-tagged anti-IgG was similarly performed after washing off the primary antibody (4 washes of 50 μL). Following the final wash step with TBST, 20 μL of SuperSignal ELISA Femto (Pierce Biotechnology) was added and the luminescence measured using an EnVision plate reader.
In general terms: An ELISA detects its analyte on a solid surface through an enzyme-linked reagent.
The IC50 is the concentration that gives 50% inhibition. For `COc1cc2c(N3CCOc4ccc(-c5ccc6nc(C)[nH]c6c5)cc4C3)ncnc2cc1OCc1ccccc1` [Example 10], the IC50 lay within 250 to 1000 nM.

In the case of `COc1cc2c(N3CCOc4ccc(-c5ccc6nc(C)[nH]c6c5)cc4C3)ncnc2cc1Br` [Example 31, 4-[7-bromo-6-(methyloxy)quinazolin-4-yl]-7-(2-methyl-1H-benzimidazol-6-yl)-2,3,4,5-tetrahydro-1,4-benzoxazepine], the concentration for half-maximal inhibition (IC50) was 250 to 1000 nM.

Consider `Cc1nc2ccc(-c3ccc4c(c3)CN(c3ncnc5c(Cl)cc(Cl)cc35)CCO4)cc2[nH]1` [Example 32, 4-(6,8-dichloroquinazolin-4-yl)-7-(2-methyl-1H-benzimidazol-6-yl)-2,3,4,5-tetrahydro-1,4-benzoxazepine], for which the IC50 fell in the range of 50 to 250 nM.

Regarding `COc1ccc2nc(Cl)nc(N3CCOc4ccc(-c5ccc6nc(C)[nH]c6c5)cc4C3)c2c1` [Example 33, 4-[2-chloro-6-(methyloxy)quinazolin-4-yl]-7-(2-methyl-1H-benzimidazol-6-yl)-2,3,4,5-tetrahydro-1,4-benzoxazepine], the IC50 was in the range of 250 to 1000 nM.

As to `COc1ccc2c(N3CCOc4ccc(-c5ccc6nc(C)[nH]c6c5)cc4C3)ncnc2c1OC` [Example 34, 4-[7,8-bis(methyloxy)quinazolin-4-yl]-7-(2-methyl-1H-benzimidazol-6-yl)-2,3,4,5-tetrahydro-1,4-benzoxazepine], the IC50 was in the range of 50 to 250 nM.

In the case of `Cc1nc2ccc(-c3ccc4c(c3)CN(c3ncnc5cc(Cl)c(I)cc35)CCO4)cc2[nH]1` [Example 35, 4-(7-chloro-6-iodoquinazolin-4-yl)-7-(2-methyl-1H-benzimidazol-6-yl)-2,3,4,5-tetrahydro-1,4-benzoxazepine], the IC50 was in the range of 50 to 250 nM.

On to `Cc1nc2ccc(-c3ccc4c(c3)CN(c3ncnc5cc(C(F)(F)F)ccc35)CCO4)cc2[nH]1` [Example 36, 7-(2-methyl-1H-benzimidazol-6-yl)-4-[7-(trifluoromethyl)quinazolin-4-yl]-2,3,4,5-tetrahydro-1,4-benzoxazepine], for which the IC50 fell in the range of 50 to 250 nM.

Consider `COc1cc2ncnc(N3CCOc4ccc(-c5ccc6nc(C)[nH]c6c5)cc4C3)c2cc1I` [Example 37, 4-[6-iodo-7-(methyloxy)quinazolin-4-yl]-7-(2-methyl-1H-benzimidazol-6-yl)-2,3,4,5-tetrahydro-1,4-benzoxazepine], for which the IC50 was in the range of 10 to 50 nM.

As to `COc1cc2ncnc(N3CCOc4ccc(-c5ccc6nc(C)[nH]c6c5)cc4C3)c2cc1Cl` [Example 38, 4-[6-chloro-7-(methyloxy)quinazolin-4-yl]-7-(2-methyl-1H-benzimidazol-6-yl)-2,3,4,5-tetrahydro-1,4-benzoxazepine], the IC50 lay in the range of 10 to 50 nM.

On to `COc1c(OCc2ccccc2)ccc2c(N3CCOc4ccc(-c5ccc6nc(C)[nH]c6c5)cc4C3)ncnc12` [Example 39, 7-(2-methyl-1H-benzimidazol-6-yl)-4-{8-(methyloxy)-7-[(phenylmethyl)oxy]quinazolin-4-yl}-2,3,4,5-tetrahydro-1,4-benzoxazepine], for which the IC50 was 50 to 250 nM.

On to `Cc1nc2ccc(-c3ccc4c(c3)CN(c3ncnc5cc(S(C)(=O)=O)ccc35)CCO4)cc2[nH]1` [Example 40, 7-(2-methyl-1H-benzimidazol-6-yl)-4-[7-(methylsulfonyl)quinazolin-4-yl]-2,3,4,5-tetrahydro-1,4-benzoxazepine], for which the IC50 lay within 50 to 250 nM.

Take `COc1c(Cl)cc2c(N3CCOc4ccc(-c5ccc6nc(C)[nH]c6c5)cc4C3)ncnc2c1OC` [Example 42, 4-[6-chloro-7,8-bis(methyloxy)quinazolin-4-yl]-7-(2-methyl-1H-benzimidazol-6-yl)-2,3,4,5-tetrahydro-1,4-benzoxazepine]: the IC50 was 250 to 1000 nM.

Take `COc1cc2ncnc(N3CCOc4ccc(-c5ccc6nc(C)[nH]c6c5)cc4C3)c2cc1Br` [Example 43, 4-[6-bromo-7-(methyloxy)quinazlolin-4-yl]-7-(2-methyl-1H-benzimidazol-6-yl)-2,3,4,5-tetrahydro-1,4-benzoxazepine]: the IC50 fell in the range of 50 to 250 nM.

With `Cc1nc2ccc(-c3ccc4c(c3)CN(c3ncncc3C)CCO4)cc2[nH]1` [Example 44, 7-(2-methyl-1H-benzimidazol-6-yl)-4-(5-methylpyrimidin-4-yl)-2,3,4,5-tetrahydro-1,4-benzoxazepine], the IC50 is 1000 to 2000 nM.

For `Cc1nc2ccc(-c3ccc4c(c3)CN(c3ncnc5sccc35)CCO4)cc2[nH]1` [Example 45, 7-(2-methyl-1H-benzimidazol-6-yl)-4-thieno[2,3-d]pyrimidin-4-yl-2,3,4,5-tetrahydro-1,4-benzoxazepine], the concentration for half-maximal inhibition (IC50) was in the range of 250 to 1000 nM.

As for `Cc1nc2ccc(-c3ccc4c(c3)CN(c3ncnc5c3CCCC5)CCO4)cc2[nH]1` [Example 46, 7-(2-methyl-1H-benzimidazol-6-yl)-4-(5,6,7,8-tetrahydroquinazolin-4-yl)-2,3,4,5-tetrahydro-1,4-benzoxazepine], the IC50 lay within 250 to 1000 nM.

For the molecule `Cc1nc2ccc(-c3ccc4c(c3)CN(c3ncnc5scc(C)c35)CCO4)cc2[nH]1` [Example 47, 7-(2-methyl-1H-benzimidazol-6-yl)-4-(5-methylthieno[2,3-d]pyrimidin-4-yl)-2,3,4,5-tetrahydro-1,4-benzoxazepine], the IC50 was no less than 2000 nM.

For the molecule `Cc1nc2ccc(-c3ccc4c(c3)CN(c3ncnc(C)c3C)CCO4)cc2[nH]1` [Example 48, 4-(5,6-dimethylpyrimidin-4-yl)-7-(2-methyl-1H-benimidazol-6-yl)-2,3,4,5-tetrahydro-1,4-benzoxazepine], the IC50 is 1000 to 2000 nM.

On to `CSc1nc2c(c(N3CCOc4ccc(-c5ccc6nc(C)[nH]c6c5)cc4C3)n1)CCC2` [Example 49, 7-(2-methyl-1H-benzimidazol-6-yl)-4-[2-(methylthio)-6,7-dihydro-5H-cyclopenta[d]pyrimidin-4-yl]-2,3,4,5-tetrahydro-1,4-benzoxazepine], for which the IC50 lay within 50 to 250 nM.

Regarding `Cc1nc2ccc(-c3ccc4c(c3)CN(c3ncnc5ccc(S(C)(=O)=O)cc35)CCO4)cc2[nH]1` [Example 50, 7-(2-methyl-1H-benzimidazol-6-yl)-4-[6-(methylsulfonyl)quinazolin-4-yl]-2,3,4,5-tetrahydro-1,4-benzoxazepine], the 50% inhibitory concentration (IC50) was in the range of 250 to 1000 nM.

As to `Cc1nc2ccc(-c3ccc4c(c3)CN(c3ncnc5c(C#N)c6n(c35)CCCC6)CCO4)cc2[nH]1` [Example 51, 4-[7-(2-methyl-1H-benzimidazol-6-yl)-2,3-dihydro-1,4-benzoxazepin-4(5H)-yl]-6,7,8,9-tetrahydropyrimido[4,5-b]indolizine-10-carbonitrile], the IC50 is 250 to 1000 nM.

On to `CCSc1nc2c(c(N3CCOc4ccc(-c5ccc6nc(C)[nH]c6c5)cc4C3)n1)CCC2` [Example 54, 4-[2-(ethylthio)-6,7-dihydro-5H-cyclopenta[d]pyrimidin-4-yl]-7-(2-methyl-1H-benzimidazol-6-yl)-2,3,4,5-tetrahydro-1,4-benzoxazepine], for which the IC50 was 250 to 1000 nM.

`Cc1nc2ccc(-c3ccc4c(c3)CN(c3ncnc(C)c3Cc3ccccc3)CCO4)cc2[nH]1` [Example 55, 7-(2-methyl-1H-benzimidazol-6-yl)-4-[6-methyl-5-(phenylmethyl)pyrimidin-4-yl]-2,3,4,5-tetrahydro-1,4-benzoxazepine]: the IC50 was no more than 10 nM.

On to `CCc1ncnc(N2CCOc3ccc(-c4ccc5nc(C)[nH]c5c4)cc3C2)c1C` [Example 56, 4-(6-ethyl-5-methylpyrimidin-4-yl)-7-(2-methyl-1H-benzimidazol-6-yl)-2,3,4,5-tetrahydro-1,4-benzoxazepine], for which the IC50 was 250 to 1000 nM.

On to `COc1cc2c(N3CCOc4ccc(-c5ccc6nc(C)[nH]c6c5)cc4C3)ncnc2c(OC)c1OC` [Example 57, 7-(2-methyl-1H-benzimidazol-6-yl)-4-[6,7,8-tris(methyloxy)quinazolin-4-tris(methyloxy)quinazolin-4-yl]-2,3,4,5-tetrahydro-1,4-benzoxazepine], for which the IC50 was no less than 2000 nM.

Consider `CCc1ncnc(N2CCOc3ccc(-c4ccc5nc(C)[nH]c5c4)cc3C2)c1CC` [Example 58, 4-(5,6-diethylpyrimidin-4-yl)-7-(2-methyl-1H-benzimidazol-6-yl)-2,3,4,5-tetrahydro-1,4-benzoxazepine], for which the IC50 lay in the range of 50 to 250 nM.

As for `Cc1nc2ccc(-c3ccc4c(c3)CN(c3cc(C(C)C)ncn3)CCO4)cc2[nH]1` [Example 59, 7-(2-methyl-1H-benzimidazol-6-yl)-4-[6-(1-methylethyl)pyrimidin-4-yl]-2,3,4,5-tetrahydro-1,4-benzoxazepine], the IC50 lay in the range of 50 to 250 nM.

Consider `Cc1nc2ccc(-c3ccc4c(c3)CN(c3ncnc5c3CCN(Cc3ccccc3)C5)CCO4)cc2[nH]1` [Example 60, 7-(2-methyl-1H-benzimidazol-6-yl)-4-[7-(phenylmethyl)-5,6,7,8-tetrahydropyrido[3,4-d]pyrimidin-4-yl]-2,3,4,5-tetrahydro-1,4-benzoxazepine], for which the IC50 was 50 to 250 nM.

Turning to `CCc1c(C(C)C)ncnc1N1CCOc2ccc(-c3ccc4nc(C)[nH]c4c3)cc2C1` [Example 61, 4-[5-ethyl-6-(1-methylethyl)pyrimidin-4-yl]-7-(2-methyl-1H-benzimidazol-6-yl)-2,3,4,5-tetrahydro-1,4-benzoxazepine], the IC50 is 50 to 250 nM.

These data come from patent publication US8648066B2 (Exelixis, Inc., priority 2009, dated 2014).
